{
  "source": "paper PMC7195821",
  "about": "(Cell Discovery, 2020)",
  "key": {"SARS-CoV-2 [1]": {"system": "SARS-CoV-2", "conditions": "cited from earlier work"}, "SARS-CoV-2 [2]": {"system": "SARS-CoV-2", "assay": "Cytopathic effects (CPE) and immunofluorescence staining of infected cells", "assay_type": "cell-based", "conditions": "Vero E6 cells, 48 h p.i., MOI 0.05"}, "COVID-19 patients": {"system": "COVID-19 patients", "design": "method as in PMID 32176772", "conditions": "retrospective study; cited from earlier work"}, "influenza viruses": {"system": "influenza viruses", "conditions": "read-out: EC50 against different influenza viruses; cited from earlier work"}, "[3]": {"conditions": "humans, single oral administration of 800 mg; cited from earlier work"}, "SARS-CoV-2 virions": {"system": "SARS-CoV-2 virions", "assay": "Intracellular trafficking: co-localization of virions with EEs or ELs by immunofluorescence", "assay_type": "cell-based", "conditions": "arbidol 10 μM, MOI 5"}, "SARS-CoV-2 binding": {"system": "SARS-CoV-2 binding", "assay": "Virus binding assay on Vero E6 cells at 4 °C, qRT-PCR", "assay_type": "cell-based", "conditions": "arbidol 10 μM, 4 °C for 1 h, MOI 0.05, P < 0.001"}, "SARS-CoV-2 [4]": {"system": "SARS-CoV-2", "assay": "Time-of-addition experiment, virus yield by qRT-PCR", "assay_type": "cell-based", "description": "The antiviral efficacy was evaluated in Vero E6 cells by qRT-PCR analysis of virus yield at 48 h p.i. Data represent the mean ± standard deviation (SD) from two independent repeats. b, c Time-of-addition experiment of arbidol. Three experimental groups (Full-time, Entry, and Post-entry) were set up as described in the Supplementary Methods. At 16 h p.i., virus yield in the cell supernatant was quantified by qRT-PCR (b), and the expression of NP in infected cells was analyzed by western blots (c). […] The co-localization of virions with EEs or LEs was analyzed by immunofluorescence assays as described in the Supplementary Methods. e The portion of virions that co-localized with EEs or ELs in each group (n > 150 cells) was quantified by Image J. f Representative confocal microscopic images of virions (red) and LAMP1^+ ELs (green) in each group. The nuclei (blue) were stained with Hoechst 33258 dye. White arrows: virions co-localized with ELs; bars: 10 μm. […] For (d), statistical analysis was performed and calculated by unpaired two-tailed t test. *P < 0.05; ***P < 0.001; ns, not significant.\nArbidol was incubated with cells during the virus entry process (Entry), the post-entry stages (Post-entry), or the entire process of infection (Full-time) and progeny virus yield was quantified by qRT-PCR. […]\nAt 16 h p.i., virus production in the culture supernatants was quantified by qRT -PCR."}, "SARS-CoV-2 NP expression": {"system": "SARS-CoV-2 NP expression", "assay": "Time-of-addition experiment, viral NP expression by western blot", "assay_type": "cell-based", "conditions": "arbidol 10 μM, 16 h p.i.", "description": "The antiviral efficacy was evaluated in Vero E6 cells by qRT-PCR analysis of virus yield at 48 h p.i. Data represent the mean ± standard deviation (SD) from two independent repeats. b, c Time-of-addition experiment of arbidol. Three experimental groups (Full-time, Entry, and Post-entry) were set up as described in the Supplementary Methods. At 16 h p.i., virus yield in the cell supernatant was quantified by qRT-PCR (b), and the expression of NP in infected cells was analyzed by western blots (c). […] The co-localization of virions with EEs or LEs was analyzed by immunofluorescence assays as described in the Supplementary Methods. e The portion of virions that co-localized with EEs or ELs in each group (n > 150 cells) was quantified by Image J. f Representative confocal microscopic images of virions (red) and LAMP1^+ ELs (green) in each group. The nuclei (blue) were stained with Hoechst 33258 dye. White arrows: virions co-localized with ELs; bars: 10 μm. For (b) and (e), statistical analysis was performed using a one-way analysis of variance (ANOVA) with GraphPad Prism. For (d), statistical analysis was performed and calculated by unpaired two-tailed t test. *P < 0.05; ***P < 0.001; ns, not significant.\nArbidol was incubated with cells during the virus entry process (Entry), the post-entry stages (Post-entry), or the entire process of infection (Full-time) and progeny virus yield was quantified by qRT-PCR.\nViral RNA/DNA Extraction Kit; Takara, CAT No. 9766). Three microliter out of 30 μL total eluted RNA was used for cDNA synthesis with a PrimeScript RT Reagent Kit with gDNA Eraser (Takara, CAT No. RR047A). The qRT-PCR was performed with TB Green Premix Ex Taq II (Takara, CAT No. RR820A) on a StepOne Plus Real-time PCR system (AB). The primers used for qRT-PCR were RBD-qF1: […]\nRBD-qR1:5’-[…]-3’. The experiments were performed in triplicate with two independent repeats and the data represent the mean ± SD from […]\nTime-of-addition experiment […]\nAt 16 h p.i., virus production in the culture supernatants was quantified by qRT -PCR. […]"}, "SARS-CoV": {"system": "SARS-CoV", "conditions": "cited from earlier work"}, "[5]": {"assay": "Cytotoxicity by cell counting kit-8 (CCK8) assay", "conditions": "African green monkey"}, "SARS-CoV-2 [6]": {"system": "SARS-CoV-2", "assay": "Antiviral activity against SARS-CoV-2 in Vero E6 cells, qRT-PCR of virus yield in supernatant at 48 h p.i.", "assay_type": "cell-based", "conditions": "for EC50: Severe acute respiratory syndrome coronavirus 2, Vero C1008, 48 h, read-out: 50% maximal effective concentration (EC50); for anti-SARS-CoV-2 activity (in words): up to the highest drug concentrations"}},
  "note": "Counter-ions that a name gives are not always drawn.",
  "data": [
    {"smiles": "NC(=O)c1nc(F)c[nH]c1=O", "note": "[favipiravir]", "values": [
      {"measurement": "efficacy against SARS-CoV-2 in vitro (in words)", "setting": "SARS-CoV-2 [1]", "result": "showed a certain efficacy"}
    ]},
    {"smiles": "CCOC(=O)c1c(CSc2ccccc2)n(C)c2cc(Br)c(O)c(CN(C)C)c12", "note": "[arbidol, Arbidol hydrochloride]", "values": [
      {"measurement": "viral NP expression and CPE due to SARS-CoV-2", "setting": "SARS-CoV-2 [2]", "result": "substantially reduced"},
      {"measurement": "discharging rate and mortality rate of COVID-19 patients (in words)", "setting": "COVID-19 patients", "result": "tendency to improve the discharging rate and decrease the mortality rate"},
      {"measurement": "EC50", "setting": "influenza viruses", "result": "2.5 to 20", "unit": "µM"},
      {"measurement": "Cmax", "setting": "[3]", "result": "~4.1", "unit": "µM"},
      {"measurement": "virions co-localized with EEs", "setting": "SARS-CoV-2 virions; 30 min p.i., DMSO 24.0%", "result": 21.4, "unit": "%"},
      {"measurement": "virions co-localized with EEs", "setting": "SARS-CoV-2 virions; 60 min p.i., DMSO 5.1%", "result": 4.1, "unit": "%"},
      {"measurement": "virions co-localized with ELs", "setting": "SARS-CoV-2 virions; 60 min p.i., DMSO 18.3%, P < 0.05", "result": 22.4, "unit": "%"},
      {"measurement": "virions co-localized with EEs", "setting": "SARS-CoV-2 virions; 90 min p.i., DMSO 3.2%", "result": 2.8, "unit": "%"},
      {"measurement": "virions co-localized with ELs", "setting": "SARS-CoV-2 virions; 90 min p.i., DMSO ~13.5%, P < 0.001", "result": "~ 23.6%"},
      {"measurement": "portion of unbound virions, % of the control group", "setting": "SARS-CoV-2 binding", "result": 156, "unit": "%"},
      {"measurement": "inhibition at 10 µM", "setting": "SARS-CoV-2 [4]; Severe acute respiratory syndrome coronavirus 2, 16 h, read-out: inhibition rate of virus yield, Post-entry", "result": "~55", "unit": "%"},
      {"measurement": "inhibition of virus yield, Entry", "setting": "SARS-CoV-2 [4]; arbidol 10 μM during virus entry, MOI 0.05, 16 h p.i.", "result": "~ 75%"},
      {"measurement": "expression level of viral NP (NP/GAPDH), % of the DMSO group, Entry", "setting": "SARS-CoV-2 NP expression; Entry stage", "result": 41, "unit": "%"},
      {"measurement": "expression level of viral NP (NP/GAPDH), % of the DMSO group, Full-time", "setting": "SARS-CoV-2 NP expression; Full-time", "result": 13, "unit": "%"},
      {"measurement": "expression level of viral NP (NP/GAPDH), % of the DMSO group, Post-entry", "setting": "SARS-CoV-2 NP expression; Post-entry stage", "result": 61, "unit": "%"}
    ]},
    {"smiles": "CC(=O)N[C@H]1[C@H]([C@H](O)[C@H](O)CO)OC(C(=O)O)=C[C@@H]1N=C(N)N", "note": "[Zanamivir]", "values": [
      {"measurement": "inhibition of SARS-CoV (in words)", "setting": "SARS-CoV", "result": "ineffective"},
      {"measurement": "CC50 at 24 h", "setting": "[5]", "result": "> 100", "unit": "µM"},
      {"measurement": "EC50", "setting": "SARS-CoV-2 [6]", "result": "> 100", "unit": "µM"},
      {"measurement": "anti-SARS-CoV-2 activity (in words)", "setting": "SARS-CoV-2 [6]; Vero E6 cells", "result": "did not exhibit anti-SARS-CoV-2 activity"}
    ]},
    {"smiles": "[H]/N=C(\\N)N[C@H]1C=C(C(=O)O)O[C@@H]([C@H](OC)[C@H](O)CO)[C@@H]1NC(C)=O", "note": "[Laninamivir]", "values": [
      {"measurement": "CC50 at 24 h", "setting": "[5]", "result": "> 100", "unit": "µM"},
      {"measurement": "EC50", "setting": "SARS-CoV-2 [6]", "result": "> 30", "unit": "µM"},
      {"measurement": "anti-SARS-CoV-2 activity (in words)", "setting": "SARS-CoV-2 [6]; Vero E6 cells", "result": "did not exhibit anti-SARS-CoV-2 activity"}
    ]},
    {"smiles": "COC(=O)OCOc1c2n(ccc1=O)N([C@@H]1c3ccccc3SCc3c1ccc(F)c3F)[C@@H]1COCCN1C2=O", "note": "[Baloxavir, Baloxavir marboxil]", "values": [
      {"measurement": "anti-SARS-CoV-2 activity (in words)", "setting": "SARS-CoV-2 [6]; Vero E6 cells", "result": "failed to block SARS-CoV-2 infection"},
      {"measurement": "inhibition of SARS-CoV-2 infection", "setting": "SARS-CoV-2 [6]; at 50 μM, Vero E6 cells, 48 h p.i.", "result": "~ 29%"},
      {"measurement": "inhibition of SARS-CoV-2 in vitro (in words)", "setting": "SARS-CoV-2 [1]; ref 11 (Choy et al.)", "result": "failed to inhibit"}
    ]},
    {"smiles": "CCC(CC)[C@H](NC(C)=O)[C@@H]1[C@H](O)[C@@H](C(=O)O)C[C@H]1N=C(N)N.O.O.O", "note": "[Peramivir, Peramivir Trihydrate]", "values": [
      {"measurement": "anti-SARS-CoV-2 activity (in words)", "setting": "SARS-CoV-2 [6]; Vero E6 cells", "result": "did not exhibit anti-SARS-CoV-2 activity"}
    ]}
  ]
}
